Results reported in PubChem BioAssay AID1259407 (Chemical Carcinogenesis Research Information System (CCRIS), 2018).
Activity calls are given as the source filed them. No rule for the calls is given here.

Tested on: CCRIS mutagenicity, Ames/micronucleus/aberration tests
Assay: CCRIS mutagenicity studies
[1] = Test System: AMES SALMONELLA TYPHIMURIUM, Strain/Indicator: TA97, Metabolic Activation: NONE, Method: STANDARD PLATE
[2] = Test System: AMES SALMONELLA TYPHIMURIUM, Strain/Indicator: TA98, Metabolic Activation: NONE, Method: STANDARD PLATE
[3] = Test System: AMES SALMONELLA TYPHIMURIUM, Strain/Indicator: TA100, Metabolic Activation: NONE, Method: STANDARD PLATE
[4] = Test System: AMES SALMONELLA TYPHIMURIUM, Strain/Indicator: TA100, Metabolic Activation: RAT LIVER S-9, AROCLOR 1254, Method: STANDARD PLATE
[5] = Test System: AMES SALMONELLA TYPHIMURIUM, Strain/Indicator: TA102, Metabolic Activation: NONE, Method: STANDARD PLATE
[6] = Test System: AMES SALMONELLA TYPHIMURIUM, Strain/Indicator: TA1535, Metabolic Activation: NONE, Method: STANDARD PLATE
[7] = Test System: AMES SALMONELLA TYPHIMURIUM, Strain/Indicator: TA1537, Metabolic Activation: NONE, Method: STANDARD PLATE
[8] = Test System: AMES SALMONELLA TYPHIMURIUM, Strain/Indicator: TA98, Metabolic Activation: RAT, LIVER, S-9, AROCLOR 1254, Method: STANDARD PLATE
[9] = Test System: AMES SALMONELLA TYPHIMURIUM, Strain/Indicator: TA100, Metabolic Activation: RAT, LIVER, S-9, AROCLOR 1254, Method: STANDARD PLATE

CC1COCc2cc3c(cc21)C(C)(C)C(C)C3(C)C (stereo unspecified) was tested, and the mutagenic call [1] was “inactive; negative”, the mutagenic call (Test System: AMES SALMONELLA TYPHIMURIUM, Strain/Indicator: TA97, Metabolic Activation: RAT LIVER S-9, AROCLOR 1254, Method: STANDARD PLATE) was “inactive; negative” and the mutagenic call [2] was “inactive; negative”. The mutagenic call (Test System: AMES SALMONELLA TYPHIMURIUM, Strain/Indicator: TA98, Metabolic Activation: RAT LIVER S-9,AROCLOR 1254, Method: STANDARD PLATE) was “inactive; negative”, the mutagenic call [3] was “inactive; negative” and the mutagenic call [4] was “inactive; negative”. For the same molecule, the mutagenic call [5] was “inactive; negative”, the mutagenic call (Test System: AMES SALMONELLA TYPHIMURIUM, Strain/Indicator: TA102, Metabolic Activation: RAT LIVER S-9, AROCLOR 1254, Method: STANDARD PLATE) was “inactive; negative” and the mutagenic call [6] was “inactive; negative”. The mutagenic call (Test System: AMES SALMONELLA TYPHIMURIUM, Strain/Indicator: TA1535, Metabolic Activation: RAT LIVER S-9, AROCLOR 1254, Method: STANDARD PLATE) was “inactive; negative”, the mutagenic call [7] was “inactive; negative” and the mutagenic call (Test System: AMES SALMONELLA TYPHIMURIUM, Strain/Indicator: TA1537, Metabolic Activation: RAT LIVER S-9, AROCLOR 1254, Method: STANDARD PLATE) was “inactive; negative”. The mutagenic call (Test System: AMES SALMONELLA TYPHIMURIUM, Strain/Indicator: TA1538, Metabolic Activation: NONE, Method: STANDARD PLATE) was “inactive; negative”, the mutagenic call (Test System: AMES SALMONELLA TYPHIMURIUM, Strain/Indicator: TA1538, Metabolic Activation: RAT LIVER S-9, AROCLOR 1254, Method: STANDARD PLATE) was “inactive; negative” and the mutagenic call (Test System: ESCHERICHIA COLI, Strain/Indicator: WP2 UVR A, Metabolic Activation: NONE, Method: STANDARD PLATE) was “inactive; negative”. The mutagenic call (Test System: ESCHERICHIA COLI, Strain/Indicator: WP2 UVR A, Metabolic Activation: RAT LIVER S-9, AROCLOR 1254, Method: STANDARD PLATE) was “inactive; negative” and the mutagenic call (Test System: UDS RAT HEPATOCYTES, Metabolic Activation: NONE, Method: NET NUCLEAR GRAIN COUNT) was “inactive; negative”.

With CN(Cc1cccc(Cl)c1)N=O the mutagenic call (Test System: AMES SALMONELLA TYPHIMURIUM, Strain/Indicator: TA1535, Metabolic Activation: HAMSTER, LIVER, S-9, AROCLOR 1254, Method: STANDARD PLATE) was “active; positive” and the mutagenic call [6] was “inactive; negative”.

For O=[N+]([O-])O[C@H]1CO[C@H]2[C@@H]1OC[C@H]2O[N+](=O)[O-], the mutagenic call [2] was “inactive; negative”, the mutagenic call [8] was “inactive; negative” and the mutagenic call [3] was “inactive; negative”. For the same molecule, the mutagenic call [9] was “inactive; negative”, the mutagenic call [6] was “inactive; negative” and the mutagenic call (Test System: AMES SALMONELLA TYPHIMURIUM, Strain/Indicator: TA1535, Metabolic Activation: RAT, LIVER, S-9, AROCLOR 1254, Method: STANDARD PLATE) was “inactive; negative”. For the same molecule, the mutagenic call [7] was “inactive; negative” and the mutagenic call (Test System: AMES SALMONELLA TYPHIMURIUM, Strain/Indicator: TA1537, Metabolic Activation: RAT, LIVER, S-9, AROCLOR 1254, Method: STANDARD PLATE) was “inactive; negative”.

With Nc1cc(S(=O)(=O)O)cc2cc(S(=O)(=O)O)c(N=Nc3ccccc3)c(O)c12 the mutagenic call [2] was “inactive; negative”, the mutagenic call (Test System: AMES SALMONELLA TYPHIMURIUM, Strain/Indicator: TA98, Metabolic Activation: RAT LIVER S-9, AROCLOR 1254, Method: STANDARD PLATE) was “inactive; negative” and the mutagenic call [3] was “inactive; negative”. For the same molecule, the mutagenic call [4] was “inactive; negative”.

In the case of CCOC(=O)c1[nH]c2ccccc2c1N=Cc1ccc(C)cc1, the mutagenic call [1] is reported as “inactive; negative”, the mutagenic call (Test System: AMES SALMONELLA TYPHIMURIUM, Strain/Indicator: TA97, Metabolic Activation: RAT, LIVER, S-9, AROCLOR 1254, Method: STANDARD PLATE) is reported as “inactive; negative” and the mutagenic call [2] is reported as “inactive; negative”. The mutagenic call [8] was “inactive; negative”, the mutagenic call [3] was “inactive; negative” and the mutagenic call [9] was “inactive; negative”. The mutagenic call [5] was “inactive; negative” and the mutagenic call (Test System: AMES SALMONELLA TYPHIMURIUM, Strain/Indicator: TA102, Metabolic Activation: RAT, LIVER, S-9, AROCLOR 1254, Method: STANDARD PLATE) was “inactive; negative”.

With CC(O)CC(C)(C)O (stereo unspecified) the mutagenic call (Test System: Ames Salmonella typhimurium, Strain/Indicator: TA98, Metabolic Activation: None, Method: Preincubation) was “inactive; negative”, the mutagenic call (Test System: Ames Salmonella typhimurium, Strain/Indicator: TA98, Metabolic Activation: Rat, Liver, S9, Sodium phenobarbital and 5,6-benzoflavone (10%), Method: Preincubation) was “inactive; negative” and the mutagenic call (Test System: Ames Salmonella typhimurium, Strain/Indicator: TA100, Metabolic Activation: None, Method: Preincubation) was “inactive; negative”. The mutagenic call (Test System: Ames Salmonella typhimurium, Strain/Indicator: TA100, Metabolic Activation: Rat, Liver, S9, Sodium phenobarbital and 5,6-benzoflavone (10%), Method: Preincubation) was “inactive; negative”, the mutagenic call (Test System: Ames Salmonella typhimurium, Strain/Indicator: TA1535, Metabolic Activation: None, Method: Preincubation) was “inactive; negative” and the mutagenic call (Test System: Ames Salmonella typhimurium, Strain/Indicator: TA1535, Metabolic Activation: Rat, Liver, S9, Sodium phenobarbital and 5,6-benzoflavone (10%), Method: Preincubation) was “inactive; negative”. For the same molecule, the mutagenic call (Test System: Ames Salmonella typhimurium, Strain/Indicator: TA1537, Metabolic Activation: None, Method: Preincubation) was “inactive; negative”, the mutagenic call (Test System: Ames Salmonella typhimurium, Strain/Indicator: TA1537, Metabolic Activation: Rat, Liver, S9, Sodium phenobarbital and 5,6-benzoflavone (10%), Method: Preincubation) was “inactive; negative” and the mutagenic call (Test System: E. coli, Strain/Indicator: WP2uvrA/pKM101, Metabolic Activation: None, Method: Preincubation) was “inactive; negative”. For the same molecule, the mutagenic call (Test System: E. coli, Strain/Indicator: WP2uvrA/pKM101, Metabolic Activation: Rat, Liver, S9, Sodium Phenobarbital and 5,6-benzoflavone (10%), Method: Preincubation) was “inactive; negative”.

For c1cc2ccc3cccc4ncc(c1)c2c34, the mutagenic call [8] was “active; positive” and the mutagenic call [9] was “active; positive”.

c1ccc2c(c1)-c1cc3ccc4ccccc4c3cc1[C@H]1N[C@@H]21 was tested, and the mutagenic call [2] was “active; positive” and the mutagenic call [3] was “active; positive”.

CCc1c2ccccc2c(C)c2ccc3ccccc3c12 was tested, and the mutagenic call (Test System: AMES SALMONELLA TYPHIMURIUM, Strain/Indicator: TA98, Method: STANDARD PLATE) was “inactive; negative”, the mutagenic call (Test System: AMES SALMONELLA TYPHIMURIUM, Strain/Indicator: TA100, Metabolic Activation: RAT, LIVER, S-9, PHENOBARBITAL, Method: STANDARD PLATE) was “inactive; negative” and the mutagenic call (Test System: AMES SALMONELLA TYPHIMURIUM, Strain/Indicator: TA100, Method: STANDARD PLATE) was “inactive; negative”.
